Reference: US20240000872A1, “NOVEL BACTERIOPHAGE THAT LYSES ACINETOBACTER GENUS BACTERIA HAVING RESISTANCE TO ANTIBIOTICS” (priority 2020, published 2024)

Tested on: Acinetobacter baumannii strains
Assay: Antibiotic susceptibility test (CLSI disk diffusion test method, read per CLSI 2016)
Type: cell-based
Protocol: (§1) Strain identification was performed using a kit such as AT 32 GN system (bioMérieux, Marcy l'Etoile, France). […] In Table 2 below, S, I, and R are the results obtained by evaluating susceptibility to the antibacterial agents, in which ‘S’ means susceptible, ‘I’ means intermediate, and ‘R’ means resistant.
as §1, with “as ATB” for “as AT”, “system (bioMédrieux,” for “system (bioMérieux,”, “Table 6” for “Table 2”
as §1, with “as ATB” for “as AT”, “Table 10” for “Table 2”, “susceptible, T” for “susceptible, ‘I’”

C[C@@H](O)[C@H]1C(=O)N2C(C(=O)O)=C(S[C@@H]3CN[C@H](C(=O)N(C)C)C3)[C@H](C)[C@H]12 [Meropenem, meropenem]
antibiotic susceptibility class (host strain YMC14/01/C29): R
antibiotic susceptibility class (host strain YMC14/01/IP122): R
antibiotic susceptibility class (host strain YMC14/01/L8): R
antibiotic susceptibility class (host strain YMC14/01/P31): R
antibiotic susceptibility class (host strain YMC14/01/P117): R
antibiotic susceptibility class (host strain YMC14/01/P224): R
antibiotic susceptibility class (host strain YMC14/01/P727): R
antibiotic susceptibility class (host strain YMC14/01/P728): R
antibiotic susceptibility class (host strain YMC14/01/R130): R
antibiotic susceptibility class (host strain YMC14/01/R160): R
antibiotic susceptibility class (host strain YMC14/01/R198): R
antibiotic susceptibility class (host strain YMC14/01/R257): R
antibiotic susceptibility class (host strain YMC14/01/R270): R
antibiotic susceptibility class (host strain YMC14/01/R324): R
antibiotic susceptibility class (host strain YMC14/01/R443): R
antibiotic susceptibility class (host strain YMC14/01/R451): R
antibiotic susceptibility class (host strain YMC14/01/R560): R
antibiotic susceptibility class (host strain YMC14/01/R617): R
antibiotic susceptibility class (host strain YMC14/01/R671): R
antibiotic susceptibility class (host strain YMC14/01/R732): R
antibiotic susceptibility class (host strain YMC14/01/R767): R
antibiotic susceptibility class (host strain YMC14/01/R904): R
antibiotic susceptibility class (host strain YMC14/01/R905): R
antibiotic susceptibility class (host strain YMC14/01/R921): R
antibiotic susceptibility class (host strain YMC14/01/R941): R
antibiotic susceptibility class (host strain YMC14/01/R958): R
antibiotic susceptibility class (host strain YMC14/01/R1006): R
antibiotic susceptibility class (host strain YMC14/01/R1199): R
antibiotic susceptibility class (host strain YMC14/01/R1659): R
antibiotic susceptibility class (host strain YMC14/01/R1722): R
antibiotic susceptibility class (host strain YMC14/01/R1752): R
antibiotic susceptibility class (host strain YMC14/01/R2429): R
antibiotic susceptibility class (host strain YMC14/01/R2572): R
antibiotic susceptibility class (host strain YMC14/01/R2855): R
antibiotic susceptibility class (host strain YMC14/01/R2945): R
antibiotic susceptibility class (host strain YMC14/01/R3007): R
antibiotic susceptibility class (host strain YMC14/01/R3129): R
antibiotic susceptibility class (host strain YMC14/01/R3317): R
antibiotic susceptibility class (host strain YMC14/01/R3474): R
antibiotic susceptibility class (host strain YMC14/01/R3574): R
antibiotic susceptibility class (host strain YMC14/01/U313): R
antibiotic susceptibility class (host strain YMC14/01/U318): R
antibiotic susceptibility class (host strain YMC14/02/L18): R
antibiotic susceptibility class (host strain YMC14/02/P47): R
antibiotic susceptibility class (host strain YMC14/02/R1860): R
antibiotic susceptibility class (host strain YMC14/02/R2417): R
antibiotic susceptibility class (host strain YMC14/02/R2599): R
antibiotic susceptibility class (host strain YMC14/02/R2668): R
antibiotic susceptibility class (host strain YMC14/02/R2758): R
antibiotic susceptibility class (host strain YMC14/02/R2781): R
antibiotic susceptibility class (host strain YMC14/02/R3106): R
antibiotic susceptibility class (host strain YMC14/02/R3419): R
antibiotic susceptibility class (host strain YMC14/02/U1607): R
antibiotic susceptibility class (host strain YMC14/03/L9): R
antibiotic susceptibility class (host strain YMC14/03/P471): R
antibiotic susceptibility class (host strain YMC14/03/R122): R
antibiotic susceptibility class (host strain YMC14/03/R217): R
antibiotic susceptibility class (host strain YMC14/03/R380): R
antibiotic susceptibility class (host strain YMC14/03/R618): R
antibiotic susceptibility class (host strain YMC14/03/R2144): R
antibiotic susceptibility class (host strain YMC14/03/U4616): R
antibiotic susceptibility class (host strain YMC14/04/R1078): R
antibiotic susceptibility class (host strain YMC14/04/R1080): R
antibiotic susceptibility S/I/R (host strain YMC14/06/R2359): R
susceptibility category (S/I/R) (host strain YMC14/06/R2359): R
antibiotic susceptibility S/I/R (host strain YMC14/08/R1169): R
susceptibility category (S/I/R) (host strain YMC14/08/R1169): R
antibiotic susceptibility S/I/R (host strain YMC14/08/T90): R
susceptibility category (S/I/R) (host strain YMC14/08/T90): R
antibiotic susceptibility S/I/R (host strain YMC15/02/R436): R
susceptibility category (S/I/R) (host strain YMC15/02/R436): R
antibiotic susceptibility S/I/R (host strain YMC15/02/T28): R
susceptibility category (S/I/R) (host strain YMC15/02/T28): R
antibiotic susceptibility S/I/R (host strain YMC15/03/R1604): R
susceptibility category (S/I/R) (host strain YMC15/03/R1604): R
antibiotic susceptibility S/I/R (host strain YMC15/09/R1869): R
susceptibility category (S/I/R) (host strain YMC15/09/R1869): R
antibiotic susceptibility S/I/R (host strain YMC16/01/P11): R
susceptibility category (S/I/R) (host strain YMC16/01/P11): R
antibiotic susceptibility S/I/R (host strain YMC16/01/R123): R
susceptibility category (S/I/R) (host strain YMC16/01/R123): R
antibiotic susceptibility S/I/R (host strain YMC16/01/R198): R
susceptibility category (S/I/R) (host strain YMC16/01/R198): R
antibiotic susceptibility S/I/R (host strain YMC16/01/R353): R
susceptibility category (S/I/R) (host strain YMC16/01/R353): R
antibiotic susceptibility S/I/R (host strain YMC16/01/R380): R
susceptibility category (S/I/R) (host strain YMC16/01/R380): R
antibiotic susceptibility S/I/R (host strain YMC16/01/R397): R
susceptibility category (S/I/R) (host strain YMC16/01/R397): R
antibiotic susceptibility S/I/R (host strain YMC16/01/R405): R
susceptibility category (S/I/R) (host strain YMC16/01/R405): R
antibiotic susceptibility S/I/R (host strain YMC16/03/R4461): R
susceptibility category (S/I/R) (host strain YMC16/03/R4461): R
antibiotic susceptibility S/I/R (host strain YMC16/05/R2210): R
susceptibility category (S/I/R) (host strain YMC16/05/R2210): R
antibiotic susceptibility S/I/R (host strain YMC16/07/R2512): R
susceptibility category (S/I/R) (host strain YMC16/07/R2512): R
antibiotic susceptibility S/I/R (host strain YMC16/09/R2471): R
susceptibility category (S/I/R) (host strain YMC16/09/R2471): R
antibiotic susceptibility S/I/R (host strain YMC16/10/R2537): R
susceptibility category (S/I/R) (host strain YMC16/10/R2537): R
antibiotic susceptibility S/I/R (host strain YMC16/12/B11422): R
susceptibility category (S/I/R) (host strain YMC16/12/B11422): R
antibiotic susceptibility S/I/R (host strain YMC16/12/B11449): R
susceptibility category (S/I/R) (host strain YMC16/12/B11449): R
antibiotic susceptibility S/I/R (host strain YMC16/12/B13325): R
susceptibility category (S/I/R) (host strain YMC16/12/B13325): R
antibiotic susceptibility S/I/R (host strain YMC16/12/P503): R
susceptibility category (S/I/R) (host strain YMC16/12/P503): R
antibiotic susceptibility S/I/R (host strain YMC16/12/R4637): R
susceptibility category (S/I/R) (host strain YMC16/12/R4637): R
antibiotic susceptibility S/I/R (host strain YMC17/01/B8053): R
susceptibility category (S/I/R) (host strain YMC17/01/B8053): R
antibiotic susceptibility S/I/R (host strain YMC17/01/B10087): R
susceptibility category (S/I/R) (host strain YMC17/01/B10087): R
antibiotic susceptibility S/I/R (host strain YMC17/01/B12075): R
susceptibility category (S/I/R) (host strain YMC17/01/B12075): R
antibiotic susceptibility S/I/R (host strain YMC17/01/B13454): R
susceptibility category (S/I/R) (host strain YMC17/01/B13454): R
antibiotic susceptibility S/I/R (host strain YMC17/01/P518): R
susceptibility category (S/I/R) (host strain YMC17/01/P518): R
antibiotic susceptibility S/I/R (host strain YMC17/01/R2812): R
susceptibility category (S/I/R) (host strain YMC17/01/R2812): R
antibiotic susceptibility S/I/R (host strain YMC17/02/B14): R
susceptibility category (S/I/R) (host strain YMC17/02/B14): R
antibiotic susceptibility S/I/R (host strain YMC17/02/B87): R
susceptibility category (S/I/R) (host strain YMC17/02/B87): R
antibiotic susceptibility S/I/R (host strain YMC17/02/B721): R
susceptibility category (S/I/R) (host strain YMC17/02/B721): R
antibiotic susceptibility S/I/R (host strain YMC17/02/B4039): R
susceptibility category (S/I/R) (host strain YMC17/02/B4039): R
antibiotic susceptibility S/I/R (host strain YMC17/02/B4520): R
susceptibility category (S/I/R) (host strain YMC17/02/B4520): R
antibiotic susceptibility S/I/R (host strain YMC17/02/B4864): S
susceptibility category (S/I/R) (host strain YMC17/02/B4864): S
antibiotic susceptibility S/I/R (host strain YMC17/02/B8414): R
susceptibility category (S/I/R) (host strain YMC17/02/B8414): R
antibiotic susceptibility S/I/R (host strain YMC17/02/P523): R
susceptibility category (S/I/R) (host strain YMC17/02/P523): R
antibiotic susceptibility S/I/R (host strain YMC17/02/R541): R
susceptibility category (S/I/R) (host strain YMC17/02/R541): R
antibiotic susceptibility S/I/R (host strain YMC17/02/R2392): R
susceptibility category (S/I/R) (host strain YMC17/02/R2392): R
antibiotic susceptibility S/I/R (host strain YMC17/03/B4730): R
susceptibility category (S/I/R) (host strain YMC17/03/B4730): R
antibiotic susceptibility S/I/R (host strain YMC17/03/B5000): R
susceptibility category (S/I/R) (host strain YMC17/03/B5000): R
antibiotic susceptibility S/I/R (host strain YMC17/03/P971): R
susceptibility category (S/I/R) (host strain YMC17/03/P971): R
antibiotic susceptibility S/I/R (host strain YMC17/03/R348): R
susceptibility category (S/I/R) (host strain YMC17/03/R348): R
antibiotic susceptibility S/I/R (host strain YMC17/03/R585): R
susceptibility category (S/I/R) (host strain YMC17/03/R585): R
antibiotic susceptibility S/I/R (host strain YMC17/03/R1888): R
susceptibility category (S/I/R) (host strain YMC17/03/R1888): R
antibiotic susceptibility S/I/R (host strain YMC17/03/R3279): R
susceptibility category (S/I/R) (host strain YMC17/03/R3279): R
antibiotic susceptibility S/I/R (host strain YMC17/03/R4077): R
susceptibility category (S/I/R) (host strain YMC17/03/R4077): R
antibiotic susceptibility S/I/R (host strain YMC17/03/R4607): R
susceptibility category (S/I/R) (host strain YMC17/03/R4607): R
antibiotic susceptibility S/I/R (host strain YMC17/04/R488): R
susceptibility category (S/I/R) (host strain YMC17/04/R488): R
antibiotic susceptibility S/I/R (host strain YMC17/04/R640): R
susceptibility category (S/I/R) (host strain YMC17/04/R640): R
antibiotic susceptibility S/I/R (host strain YMC/17/05/R1095): R
susceptibility category (S/I/R) (host strain YMC/17/05/R1095): R
